The source of these data is ChEMBL document CHEMBL3244314, “Synthesis and xanthine oxidase inhibitory analysis of 1H-pyrrolo[3,2-c]pyridine-4,6(5H,7H)-dione (3,7-dideazaxanthine) and two of its derivatives” (J Med Chem, 1978).

For series [1], the target named is T1, Xanthine dehydrogenase/oxidase (Bos taurus, UniProt P80457). Nature of the series: Noncompetitive inhibition of bovine buttermilk xanthine oxidase by Lineweaver-burk plot analysis. As to conditions: read-out: Kis; call rule not given here.
T1 sequence (P80457 whole entry): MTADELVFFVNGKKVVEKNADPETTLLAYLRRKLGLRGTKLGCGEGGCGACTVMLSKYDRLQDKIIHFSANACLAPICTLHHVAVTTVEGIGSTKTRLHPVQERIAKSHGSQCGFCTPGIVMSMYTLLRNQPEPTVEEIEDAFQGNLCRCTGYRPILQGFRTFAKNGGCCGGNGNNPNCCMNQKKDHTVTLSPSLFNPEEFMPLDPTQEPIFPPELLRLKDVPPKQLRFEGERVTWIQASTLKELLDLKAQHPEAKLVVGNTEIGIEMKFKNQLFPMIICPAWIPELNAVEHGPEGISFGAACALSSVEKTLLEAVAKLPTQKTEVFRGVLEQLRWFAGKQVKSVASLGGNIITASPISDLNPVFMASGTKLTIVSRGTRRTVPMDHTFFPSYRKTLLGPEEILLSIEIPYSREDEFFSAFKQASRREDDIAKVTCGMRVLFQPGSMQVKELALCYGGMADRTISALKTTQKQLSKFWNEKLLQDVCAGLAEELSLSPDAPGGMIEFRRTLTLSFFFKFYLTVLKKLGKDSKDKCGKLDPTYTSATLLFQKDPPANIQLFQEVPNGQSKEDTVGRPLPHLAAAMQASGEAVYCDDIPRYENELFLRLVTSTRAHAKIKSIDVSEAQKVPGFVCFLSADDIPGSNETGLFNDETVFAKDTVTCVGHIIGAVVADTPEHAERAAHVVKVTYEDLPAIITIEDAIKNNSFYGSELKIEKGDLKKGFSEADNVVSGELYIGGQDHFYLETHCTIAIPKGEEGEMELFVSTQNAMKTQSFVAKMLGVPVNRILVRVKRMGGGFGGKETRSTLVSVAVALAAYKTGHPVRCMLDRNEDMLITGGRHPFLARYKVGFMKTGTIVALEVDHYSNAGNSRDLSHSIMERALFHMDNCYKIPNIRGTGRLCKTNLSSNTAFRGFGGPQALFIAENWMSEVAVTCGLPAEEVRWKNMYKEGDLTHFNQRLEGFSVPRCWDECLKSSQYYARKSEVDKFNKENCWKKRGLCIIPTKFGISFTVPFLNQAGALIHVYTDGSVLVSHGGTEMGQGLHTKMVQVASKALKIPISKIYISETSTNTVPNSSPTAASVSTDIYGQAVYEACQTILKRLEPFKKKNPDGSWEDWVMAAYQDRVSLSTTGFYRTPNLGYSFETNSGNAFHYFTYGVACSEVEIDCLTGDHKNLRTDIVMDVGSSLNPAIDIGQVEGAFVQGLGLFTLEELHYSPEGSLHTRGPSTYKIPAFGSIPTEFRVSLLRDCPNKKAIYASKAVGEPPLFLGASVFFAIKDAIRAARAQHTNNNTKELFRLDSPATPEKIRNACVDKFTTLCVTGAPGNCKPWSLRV
The target in series [2] is T1, Xanthine dehydrogenase/oxidase. Nature of the series: Inhibition of bovine buttermilk xanthine oxidase by spectrophotometric analysis. Particulars: cattle.

As for `O=C1Cc2[nH]ccc2C(=O)N1`, the Ki in series [1] was 92.5 µM. On the same count and under the same terms, as for `CN1C(=O)Cc2[nH]ccc2C1=O`, the figure is 120 µM. As to `O=C1Cc2[nH]ccc2C(=O)O1`, the “inhibition (INH)” value in series [2] was “Not Active”.
